Test results published in patent US8192962B2, “Processes for detecting toxic substances” (Daikin Industries, Ltd., priority 2001, dated 2012).

System: Energy system protein genes
Assay: DNA chip mRNA expression in yeast, energy system protein genes (Table 4)
Type: cell-based, Saccharomyces cerevisiae S288C
Procedure, shortened: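 S. cerevisiae S288C grown at 25° C in YPD were exposed in log phase for two hours to one toxic chemical at a growth-inhibiting, non-lethal concentration; untreated cells served as control. Poly(A) mRNA was reverse-transcribed with Cy3/Cy5-dUTP and hybridized to a whole-genome yeast DNA chip at 65° C for over 12 hours; values are fluorescence ratios versus untreated.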

## [Cl][Cd][Cl] [(2), CdCl2]
Yeast gene YAL060W
  The level of expressed mRNA in the presence of chemical substance/The level of expressed mRNA in the absence of chemical substance: 1.8
Yeast gene YBL058W, cells incubated two hours with the chemical substance
  The level of expressed mRNA in the presence of chemical substance/The level of expressed mRNA in the absence of chemical substance: 1.5
Yeast gene YBL099W, cells incubated two hours with the chemical substance
  The level of expressed mRNA in the presence of chemical substance/The level of expressed mRNA in the absence of chemical substance: 0.9
Yeast gene YBR001C, cells incubated two hours with the chemical substance
  The level of expressed mRNA in the presence of chemical substance/The level of expressed mRNA in the absence of chemical substance: 1.4
Yeast gene YBR185C, cells incubated two hours with the chemical substance
  The level of expressed mRNA in the presence of chemical substance/The level of expressed mRNA in the absence of chemical substance: 1.0
Yeast gene YBR221C, cells incubated two hours with the chemical substance
  The level of expressed mRNA in the presence of chemical substance/The level of expressed mRNA in the absence of chemical substance: 0.7
Yeast gene YCL040W
  The level of expressed mRNA in the presence of chemical substance/The level of expressed mRNA in the absence of chemical substance: 5.6
Yeast gene YCR012W
  The level of expressed mRNA in the presence of chemical substance/The level of expressed mRNA in the absence of chemical substance: 1.5
Yeast gene YCR046C, cells incubated two hours with the chemical substance
  The level of expressed mRNA in the presence of chemical substance/The level of expressed mRNA in the absence of chemical substance: 1.2
Yeast gene YCR105W, cells incubated two hours with the chemical substance
  The level of expressed mRNA in the presence of chemical substance/The level of expressed mRNA in the absence of chemical substance: 1.2
Yeast gene YDL021W
  The level of expressed mRNA in the presence of chemical substance/The level of expressed mRNA in the absence of chemical substance: 1.7
Yeast gene YDL067C, cells incubated two hours with the chemical substance
  The level of expressed mRNA in the presence of chemical substance/The level of expressed mRNA in the absence of chemical substance: 1.0
Yeast gene YDL078C, cells incubated two hours with the chemical substance
  The level of expressed mRNA in the presence of chemical substance/The level of expressed mRNA in the absence of chemical substance: 1.1
Yeast gene YDL107W, cells incubated two hours with the chemical substance
  The level of expressed mRNA in the presence of chemical substance/The level of expressed mRNA in the absence of chemical substance: 1.3
Yeast gene YDL174C
  The level of expressed mRNA in the presence of chemical substance/The level of expressed mRNA in the absence of chemical substance: 1.8
Yeast gene YDL181W, cells incubated two hours with the chemical substance
  The level of expressed mRNA in the presence of chemical substance/The level of expressed mRNA in the absence of chemical substance: 1.8
Yeast gene YDR001C
  The level of expressed mRNA in the presence of chemical substance/The level of expressed mRNA in the absence of chemical substance: 2.2
Yeast gene YDR050C, cells incubated two hours with the chemical substance
  The level of expressed mRNA in the presence of chemical substance/The level of expressed mRNA in the absence of chemical substance: 1.3
Yeast gene YDR079W, cells incubated two hours with the chemical substance
  The level of expressed mRNA in the presence of chemical substance/The level of expressed mRNA in the absence of chemical substance: 1.1
Yeast gene YDR178W, cells incubated two hours with the chemical substance
  The level of expressed mRNA in the presence of chemical substance/The level of expressed mRNA in the absence of chemical substance: 2.0
Yeast gene YDR231C
  The level of expressed mRNA in the presence of chemical substance/The level of expressed mRNA in the absence of chemical substance: 1.6
Yeast gene YDR298C, cells incubated two hours with the chemical substance
  The level of expressed mRNA in the presence of chemical substance/The level of expressed mRNA in the absence of chemical substance: 1.2
Yeast gene YDR377W, cells incubated two hours with the chemical substance
  The level of expressed mRNA in the presence of chemical substance/The level of expressed mRNA in the absence of chemical substance: 1.1
Yeast gene YDR529C, cells incubated two hours with the chemical substance
  The level of expressed mRNA in the presence of chemical substance/The level of expressed mRNA in the absence of chemical substance: 1.0
Yeast gene YEL024W, cells incubated two hours with the chemical substance
  The level of expressed mRNA in the presence of chemical substance/The level of expressed mRNA in the absence of chemical substance: 0.9
Yeast gene YEL039C, cells incubated two hours with the chemical substance
  The level of expressed mRNA in the presence of chemical substance/The level of expressed mRNA in the absence of chemical substance: 0.7
Yeast gene YER178W
  The level of expressed mRNA in the presence of chemical substance/The level of expressed mRNA in the absence of chemical substance: 0.9
Yeast gene YFL057C
  The level of expressed mRNA in the presence of chemical substance/The level of expressed mRNA in the absence of chemical substance: 5.9
Yeast gene YFR053C
  The level of expressed mRNA in the presence of chemical substance/The level of expressed mRNA in the absence of chemical substance: 1.4
Yeast gene YGL018C, cells incubated two hours with the chemical substance
  The level of expressed mRNA in the presence of chemical substance/The level of expressed mRNA in the absence of chemical substance: 1.0
Yeast gene YGL062W
  The level of expressed mRNA in the presence of chemical substance/The level of expressed mRNA in the absence of chemical substance: 1.3
Yeast gene YGL187C, cells incubated two hours with the chemical substance
  The level of expressed mRNA in the presence of chemical substance/The level of expressed mRNA in the absence of chemical substance: 0.8
Yeast gene YGL191W, cells incubated two hours with the chemical substance
  The level of expressed mRNA in the presence of chemical substance/The level of expressed mRNA in the absence of chemical substance: 1.6
Yeast gene YGL205W, cells incubated two hours with the chemical substance
  The level of expressed mRNA in the presence of chemical substance/The level of expressed mRNA in the absence of chemical substance: 0.9
Yeast gene YGL256W, cells incubated two hours with the chemical substance
  The level of expressed mRNA in the presence of chemical substance/The level of expressed mRNA in the absence of chemical substance: 5.3
Yeast gene YGR043C
  The level of expressed mRNA in the presence of chemical substance/The level of expressed mRNA in the absence of chemical substance: 3.7
Yeast gene YGR062C, cells incubated two hours with the chemical substance, 25° C., YPD medium
  The level of expressed mRNA in the presence of chemical substance/The level of expressed mRNA in the absence of chemical substance: 1.0
Yeast gene YGR087C, cells incubated two hours with the chemical substance
  The level of expressed mRNA in the presence of chemical substance/The level of expressed mRNA in the absence of chemical substance: 15.0
Yeast gene YGR174C, cells incubated two hours with the chemical substance
  The level of expressed mRNA in the presence of chemical substance/The level of expressed mRNA in the absence of chemical substance: 1.6
Yeast gene YGR192C
  The level of expressed mRNA in the presence of chemical substance/The level of expressed mRNA in the absence of chemical substance: 1.0
Yeast gene YGR244C
  The level of expressed mRNA in the presence of chemical substance/The level of expressed mRNA in the absence of chemical substance: 1.2
Yeast gene YGR254W
  The level of expressed mRNA in the presence of chemical substance/The level of expressed mRNA in the absence of chemical substance: 1.3
Yeast gene YHR179W
  The level of expressed mRNA in the presence of chemical substance/The level of expressed mRNA in the absence of chemical substance: 2.3
Yeast gene YIL160C
  The level of expressed mRNA in the presence of chemical substance/The level of expressed mRNA in the absence of chemical substance: 2.4
Yeast gene YIR031C, cells incubated two hours with the chemical substance
  The level of expressed mRNA in the presence of chemical substance/The level of expressed mRNA in the absence of chemical substance: 1.6
Yeast gene YJL052W
  The level of expressed mRNA in the presence of chemical substance/The level of expressed mRNA in the absence of chemical substance: 0.9
Yeast gene YJL121C, cells incubated two hours with the chemical substance
  The level of expressed mRNA in the presence of chemical substance/The level of expressed mRNA in the absence of chemical substance: 0.5
Yeast gene YJL166W, cells incubated two hours with the chemical substance
  The level of expressed mRNA in the presence of chemical substance/The level of expressed mRNA in the absence of chemical substance: 1.5
Yeast gene YJL216C, cells incubated two hours with the chemical substance
  The level of expressed mRNA in the presence of chemical substance/The level of expressed mRNA in the absence of chemical substance: 4.7
Yeast gene YJR009C
  The level of expressed mRNA in the presence of chemical substance/The level of expressed mRNA in the absence of chemical substance: 1.7
